“And” between values parts separate entries of the source, which are not always exact repeats. Identical values can stand only once.
Legend:
[1] = PMIDA solubility in acidified PM mother liquor; assay type: physicochemical; conditions: commercial batch mother liquor acidified with HCl
Experimental: For instance, mother liquor recovered at the end of a commercial scale batch was acidified with HCl in order to have an HCl content approximately equivalent to that found at the end of the PM reaction.
The data in Table 9B indicate that low levels of supersaturation will relieve over time. […] Solubility experiments indicate that the PMIDA solubility limit in acidified ML at 105° C. is between about 6.4 wt % and about 8.5 wt %. As noted in Tables 9A and 9B, equilibrium samples were also taken at various temperatures.

[2] = Equilibrium PMIDA concentration in PM reactor mother liquor (interrupted feed experiments); assay type: physicochemical; conditions: for Equilibrium PMIDA in PM mother liquor (wt %): 60:40 DSIDA split
Experimental: PMIDA solubility limits change throughout the PM reaction making supersaturation prediction problematic. Several laboratory experiments were performed at 105° C. using a 60:40 DSIDA split between the hydrolyzer and PM reactor in order to evaluate supersaturation limits during seeding and the initial stages of the crystallization event. The PM feed amounts were altered such that only a portion of the typical feed amounts were used in order to simulate various stages of the PM reaction step. […] It is believed, without being bound to any particular theory, that as NaCl is produced during the PM reaction, and HCl is consumed, PMIDA solubility is suppressed. Table B presents PMIDA solubility in the PM reactor mother liquor at varying amounts of formalin addition.
Several laboratory experiments using an interrupted feed were performed to evaluate supersaturation limits during seeding and the initial stages of the crystallization event. The PM feed amounts were altered such that only a portion of the typical feed amounts were used in order to simulate various stages of the PM reaction step. The first two experiments were designed such that only about 40% of the typical feed amounts were used in order to mimic reactor conditions that occurred during seed addition of early-seeding experiments. These experiments utilized a 60:40 DSIDA split between the hydrolyzer and PM reactor, 43% formalin, and DSIDA1. In the first experiment, a spike of about 0.3% of NMG on a final batch weight basis was added to the reactor following the hydrolysis step. Following the PM reaction, about 6.4% of seed on a final batch weight basis were added after the feeds were completed and a sample was removed. Post-seed samples were removed at 20, 40 and 100 minutes following the seed addition to determine the rate at which supersaturation would be relieved. All of the samples were taken at approximately 105° C. As the temperature decreased, additional samples were taken at 75° C. and 50° C. The first experiment data are in Table 9A below.
In the second experiment, no NMG was added after the hydrolysis step, and seed crystals were not added. Post-feed samples were removed at 0, 60 and 240 minutes following completion of the feed addition. The second experiment data are in Table 9B below.
A third experiment was designed such that only about 70% of the typical feed amounts were used in order to simulate PM reactor conditions when the PMIDA crystallization event typically takes place. The experiment utilized a 60:40 DSIDA split between the hydrolyzer and PM reactor, 37% formalin, and DSIDA1. No NMG was added after the hydrolysis step, and seed crystals were not added. Following the completion of the feeds, the reactor contents were allowed to mix at 105° C. for approximately 21 hours before sampling.
The fourth experiment was designed such that 100% of the typical feed amounts were added to the reactor in order to determine the equilibrium PMIDA solubility of the mother liquor after all of the feeds had been added. This experiment utilized a 60:40 DSIDA split between the hydrolyzer and PM reactor, 37% formalin, and DSIDA1. No NMG was added after the hydrolysis step, and seed crystals were not added. Following completion of the feeds, the reactor contents were allowed to mix at 105° C. for approximately 21 hours before sampling. […] Thus, it is believed, without being bound to any particular theory, that as the PM reaction progresses, supersaturation increase is a function of both PMIDA in situ generation and a decreasing solubility limit.
A fifth experiment was designed to determine the equilibrium mother liquor PMIDA concentration just prior to the crystallization event when a 75:25 DSIDA feed split is used. In addition to the feed split, the experiment used 37% formalin and DSIDA1. No NMG was added after the hydrolysis step, and seed crystals were not added. Mother liquor samples were removed during the course of the experiment. […]

[3] = assay type: physicochemical; conditions: room temperature (about 25 °C); mother liquor having a relatively high impurity content
Description: It has been determined that glyphosine and NMG are more soluble in PMIDA mother liquor than is PMIDA. […] Those solubility limits are higher than the impurity concentration typically encountered in the prior art processes, thus it is believed that it is unlikely that impurity partitioning to the PMIDA wetcake results from solubility considerations such as impurities precipitating from solution onto the forming PMIDA crystal.

Compound	PMIDA Solubility in PM Mother Liquor, PM (wt %) ([1]; 20 °C)	PMIDA Solubility in PM Mother Liquor, PM (wt %) ([1]; 50 °C)	PMIDA Solubility in PM Mother Liquor, PM (wt %) ([1]; 70 °C)	PMIDA Solubility in PM Mother Liquor, PM (wt %) ([1]; 90 °C)	PMIDA Solubility in PM Mother Liquor, PM (wt %) ([1]; 115 °C)	Equilibrium PMIDA in PM mother liquor (wt %) ([2]; 40% of total formalin added to PM reactor, 105 °C)	Equilibrium PMIDA in PM mother liquor (wt %) ([2]; 70% of total formalin added to PM reactor, 105 °C)	Equilibrium PMIDA in PM mother liquor (wt %) ([2]; 100% of total formalin added to PM reactor, 105 °C)	PM mother liquor PMIDA concentration, averaged equilibrium data ([2]; 105 °C, average of interrupted runs 1 and 2)	ML PMIDA (wt %), equilibrium ([2]; PM interrupted run 1 (about 40% of feeds, seeded, NMG spike), equilibrium at 50 °C)	ML PMIDA (wt %), equilibrium ([2]; PM interrupted run 1 (about 40% of feeds, seeded, NMG spike), equilibrium at 75 °C)	ML PMIDA (wt %), equilibrium ([2]; PM interrupted run 1 (about 40% of feeds, seeded, NMG spike), equilibrium at 105 °C)	ML PMIDA (wt %), equilibrium ([2]; PM interrupted run 2 (about 40% of feeds, no seed, no NMG), equilibrium at 50 °C)	ML PMIDA (wt %), equilibrium ([2]; PM interrupted run 2 (about 40% of feeds, no seed, no NMG), equilibrium at 75 °C)	ML PMIDA (wt %), equilibrium ([2]; PM interrupted run 2 (about 40% of feeds, no seed, no NMG), equilibrium at 105 °C)	ML PMIDA (wt %), equilibrium ([2]; PM interrupted run 5, 75:25 DSIDA split, 84.0% of total formalin added, equilibrium at 105 °C, about 19 hours)	solubility limit in PMIDA mother liquor [3]
O=C(O)CN(CC(=O)O)CP(=O)(O)O [PMIDA, N-(phosphonomethyl)iminodiacetic acid]	0.52 wt %	1.26 wt %	2.29 wt %	4.15 wt %	8.72 wt %	12.6% wt %	8.6 wt % and 8.6% wt %	5.9 wt % and 5.9% wt %	about 16.4 wt %	3.3 wt %	5.3 wt %	12.4 wt %	4.0 wt %	8.1 wt %	13.8 wt %	14.4 wt %	–
CN(CC(=O)O)CP(=O)(O)O [NMG, N-methyl-N-(phosphonomethyl)glycine]	–	–	–	–	–	–	–	–	–	–	–	–	–	–	–	–	about 3.6 wt %
O=C(O)CN(CP(=O)(O)O)CP(=O)(O)O [glyphosine, N,N-bis-(phosphonomethyl)glycine]	–	–	–	–	–	–	–	–	–	–	–	–	–	–	–	–	about 3.9 wt %
